# What was measured:
# [1] = test system: maximal electroshock seizure (MES) and pentylenetetrazol (PTZ) convulsion; assay: antiepileptic efficacy (anti-MES and anti-PTZ) compared with trimethadione and methotoin; type: in vivo, ddy strain male mice; details: from Table 2
# Method: (§1) Animals used were ddy strain male mice (20-22 g) and Wistar strain male rats (150-170 g). Anticonvulsant actions were determined by the ability of the compounds to prevent pentylenetetrazol (PTZ) convulsion and maximal electroshock seizure (MES), using 8 mice per group. Anti-PTZ action was judged by the protection against tonic extensor (TE) induced by intraperitoneal injection of PTZ (100 mg/kg i.p.) (K. Nakamura et al., Arch. int. Pharmacodyn., 156 261 (1965)). Anti-MES action was also judged by the protection against TE induced by electroshock via a pair of ear electrodes ([…] al., J. Pharmacol. exp. Therap., 127 55 (1959)). The results were expressed as 50% effective dose (ED50, mg/kg po) or an inhibition percentage at certain doses used.
# [2] = LD50 in mice, method of Litchfield-Wilcoxon; type: in vivo; details: mouse, in vivo, po
# Method: (§2) Animals used were ddy strain male mice (20-22 g) and Wistar strain male rats (150-170 g).
# (§3) LD50 was calculated by the method of Litchfield-Wilcoxon (J. T. Litchfield and F. Wilcoxon, J. Pharmacol. exp. Therap., 96 99 (1949)).
# [3] = test system: maximal electroshock seizure (MES); assay: Anti-MES action: protection against tonic extensor (TE) induced by electroshock via a pair of ear electrodes; type: in vivo, ddy strain male mice
# Method: as §1, with “group.” for “group. Anti-PTZ action was judged by the protection against tonic extensor (TE) induced by intraperitoneal injection of PTZ (100 mg/kg i.p.) (K. Nakamura et al., Arch. int. Pharmacodyn., 156 261 (1965)).”
# [4] = in vivo
# Method: as §3
# [5] = LD50 in rats, method of Litchfield-Wilcoxon
# Method: as §2, §3
# [6] = test system: pentylenetetrazol (PTZ) convulsion; assay: Anti-PTZ action: protection against tonic extensor (TE) induced by intraperitoneal pentylenetetrazol (100 mg/kg i.p.); type: in vivo, ddy strain male mice; details: for ED50 / inhibition at 50 mg/kg: Mus musculus; for inhibition at 50 mg/kg: at 50 mg/kg po (given as <50*)
# Method: Animals used were ddy strain male mice (20-22 g) and Wistar strain male rats (150-170 g). Anticonvulsant actions were determined by the ability of the compounds to prevent pentylenetetrazol (PTZ) convulsion and maximal electroshock seizure (MES), using 8 mice per group. Anti-PTZ action was judged by the protection against tonic extensor (TE) induced by intraperitoneal injection of PTZ (100 mg/kg i.p.) (K. Nakamura et al., Arch. int. Pharmacodyn., 156 261 (1965)). The results were expressed as 50% effective dose (ED50, mg/kg po) or an inhibition percentage at certain doses used.
# Mice = assay: LD50 in mice, method of Litchfield-Wilcoxon; type: in vivo; details: mice, po
# Method: as §2, §3
# Rat = details: po, from "Iyakuhin Kenkyuho" (page 258), Asakura Shoten (1968); cited from earlier work
# grand-mal seizure = details: well known antiepileptic agent; cited from earlier work
# peti-mal seizure = details: well known antiepileptic agent; cited from earlier work
# [7] = Mus musculus, 50% effective dose, po, 8 mice per group
# [8] = 50% effective dose, po, PTZ 100 mg/kg i.p., 8 mice per group
compound,measurement,setting,value
"CN(C)CCCCOc1ccccc1C=Cc1ccccc1.Cl [Example 1, 2-(4-dimethylaminobutoxy)stilbene hydrochloride]",antiepileptic efficacy,[1],much greater than that of trimethadione and methotoin
same,LD50,[2]; mice,1300 mg/kg
same,ED50,[3]; [7],38 mg/kg
same,level of toxicity,[4],low level of toxicity
same,LD50,"[5]; in vivo; rat, po",2000 mg/kg
same,ED50,[6]; [8],17.8 mg/kg
"CCC1(c2ccccc2)NC(=O)N(C)C1=O (stereo not drawn) [Methotoin, reference compound]",LD50 Mice,Mice,475 mg/kg PO
same,ED50 Anti-MES,"[3]; 50% effective dose, po, 8 mice per group",91.3 mg/kg PO
same,LD50 Rat (literature),Rat,"2,500 mg/kg PO"
same,effectiveness against grand-mal seizure,grand-mal seizure,effective against grand-mal seizure
same,ED50 Anti-PTZ,[6]; [8],51.9 mg/kg PO
"CN1C(=O)OC(C)(C)C1=O [Trimethadione, reference compound]",LD50,[2]; mice,2200 mg/kg
same,effectiveness against peti-mal seizure,peti-mal seizure,effective against peti-mal seizure
same,ED50,[3]; [7],1180 mg/kg
same,ED50,[6]; [8],230 mg/kg
CNCCCCOc1ccccc1C=Cc1ccccc1 [compound 2],LD50,[2]; mice,839 mg/kg
same,ED50,[3]; [7],60 mg/kg
same,ED50,[6]; [8],22.5 mg/kg
CN1CCN(CCCCOc2ccccc2C=Cc2ccccc2)CC1 [compound 3],antiepileptic efficacy,[1],much greater than that of trimethadione and methotoin
same,LD50,[2],1050 mg/kg
same,ED50,[3]; [7],35.5 mg/kg
same,level of toxicity,[4],low level of toxicity
same,LD50,"[5]; rat, in vivo, po",2300 mg/kg
same,ED50,[6]; [8],21.1 mg/kg
OCCN1CCN(CCCCOc2ccccc2C=Cc2ccccc2)CC1 [compound 4],LD50,[2]; mice,1050 mg/kg
same,ED50,[3]; [7],76.1 mg/kg
same,ED50,[6]; [8],16.3 mg/kg
C(=Cc1ccccc1OCCCCN1CCCCC1)c1ccccc1 [compound 5],LD50,[2]; mice,621 mg/kg
same,ED50,[3]; [7],60 mg/kg
same,ED50,[6]; [8],< 50 mg/kg
same,inhibition at 50 mg/kg,[6],100%
OC1CCCN(CCCCOc2ccccc2C=Cc2ccccc2)C1 (stereo not drawn) [compound 6],antiepileptic efficacy,[1],much greater than that of trimethadione and methotoin
same,LD50,[2]; mice,415 mg/kg
same,ED50,[3]; [7],20 mg/kg
same,ED50,[6]; [8],14 mg/kg
C(=Cc1ccccc1OCCCCN1CCCC1)c1ccccc1 [compound 7],LD50,[2]; mice,600 mg/kg
same,ED50,[3]; [7],65 mg/kg
same,ED50,[6]; [8],< 50 mg/kg
same,inhibition at 50 mg/kg,[6],87.5%
CCCN1CCN(CCCCOc2ccccc2C=Cc2ccccc2)CC1 [compound 8],inhibition at 50 mg/kg,"[3]; Mus musculus, at 50 mg/kg po",40%
same,ED50,[6]; [8],< 50 mg/kg
same,inhibition at 50 mg/kg,[6],85%
